Measurements published in patent US7576093B2, “Method of treatment of bone-related disorders or conditions” (AstraZeneca AB, priority 2006, dated 2009).

What was measured:
GSK3β = target: T1, GSK3β (Mus musculus, UniProt Q9WV60); settings: glucocorticoid-treated osteoblasts in culture, GSK3β inhibited; cited from earlier work
T1 construct: host or cells: osteoblasts in culture (endogenous protein)

Sprague Dawley rats [1] = experiment: Trabecular bone mineral density of femur metaphysis by peripheral quantitative computed tomography after 14 days oral dosing; assay type: in vivo, rat; settings: male Sprague Dawley rats, oral gavage 14 days, 3 μmol/kg twice daily or 30 μmol/kg once daily, every second or every fourth day; FIG. 5a-5c
Experimental: In a separate rat study, the effect of the compound 3-amino-6-[4-(4-methylpiperazin-1-yl)sulfonylphenyl]-N-pyridin-3-ylpyrazine-2-carboxamide on the bone mineral density (BMD) […]. The compound was formulated as a ultrapure solution in water (pH 3.5). The Male Sprague Dawley rats were dosed during 14 days by oral gavage. The study contained 4 dose groups with different dosing regimes and a vehicle control, namely 3 μmol/kg (twice daily) or 30 μmol/kg (once daily, once every second day or once every fourth day). Plasma samples were always taken 2 hrs after the oral dose was given in the morning. After 14 days, the rats were euthanized, and their right femurs were removed. The trabecular bone density of the femur metaphyses were measured utilizing peripheral quantitative computed Tomography method.

Han Wistar rats = experiment: Four-week oral rat study, light microscopy of bone sections (bone formation); assay type: in vivo
Experimental: The compound 3-amino-6-[4-(4-methylpiperazin-1-yl)sulfonylphenyl]-N-pyridin-3-ylpyrazine-2-carboxamide was formulated as a solution in water. Male and female Han Wistar rats were dosed by oral gavage, at dosages of 10, 30 or 60 μmol/kg/day for four weeks and compared to vehicle controls. Complete necropsies were performed and the tissues preserved in 10% formalin. The femur, femorotibial joint, sternum and hind paws were decalcified, embedded in paraffin, sectioned at 5 μm thickness and stained with hematoxylin and eosin.

osteocalcin = experiment: Osteocalcin plasma levels in rats after 7 days oral dosing (ELISA); assay type: in vivo, rat; settings: male Sprague Dawley rats, 30 μmol/kg/day orally for 7 days, 3 hours after last dose, vs vehicle
Experimental: (§1) In a separate rat study, the effect of the compound 3-amino-6-[4-(4-methylpiperazin-1-yl)sulfonylphenyl]-N-pyridin-3-ylpyrazine-2-carboxamide on osteocalcin levels, used as a marker for bone formation, was studied. Parathyroid hormone (PTH) and calcitonin levels were also analysed. The compound was formulated as a solution in water. Male Sprague Dawley rats were given 30 μmol/kg/day of the compound orally for 7 days and then compared to vehicle control rats. Blood samples were taken before the first drug administration at day 1, and 3 hours after the last dose at day 7. Osteocalcin plasma levels were measured using a commercial immunoassay (ELISA kit (catalogue # BT-490, Biomedical Technologies Inc. MA, USA)). Intact PTH levels were analyzed using a commercial ELISA kit (catalogue # 60-2700, Immutopics Inc. CA, USA). The calcitonin was measured in the following way, 200 μL plasma was precipitated with 1 mL acid ethanol, mixed vigorously and centrifuged for 15 min at 1500 g. The supernatant was decanted into a new tube and evaporated with a stream of nitrogen in a Turbo Vap. After reconstitution in assay buffer, calcitonin levels were analyzed using a commercial ELISA kit (catalogue # S-1197, Peninsula. Calif., USA).

[2] = test system: Parathyroid hormone (PTH); experiment: Intact PTH plasma levels in rats after 7 days oral dosing (ELISA); assay type: in vivo, rat; settings: male Sprague Dawley rats, 30 μmol/kg/day orally for 7 days, 3 hours after last dose, vs vehicle
Experimental: as §1

calcitonin = experiment: Calcitonin plasma levels in rats after 7 days oral dosing (ELISA); assay type: in vivo, rat; settings: male Sprague Dawley rats, 30 μmol/kg/day orally for 7 days, 3 hours after last dose, vs vehicle
Experimental: as §1

Sprague Dawley rats [3] = experiment: Histopathology of bone in the 7-day rat study; assay type: in vivo; settings: male Sprague Dawley rats, 30 μmol/kg/day orally for 7 days
[4] = rat, 60 μmol/kg for 4 weeks, vs vehicle-treated control

T1 sequence (Q9WV60 whole entry): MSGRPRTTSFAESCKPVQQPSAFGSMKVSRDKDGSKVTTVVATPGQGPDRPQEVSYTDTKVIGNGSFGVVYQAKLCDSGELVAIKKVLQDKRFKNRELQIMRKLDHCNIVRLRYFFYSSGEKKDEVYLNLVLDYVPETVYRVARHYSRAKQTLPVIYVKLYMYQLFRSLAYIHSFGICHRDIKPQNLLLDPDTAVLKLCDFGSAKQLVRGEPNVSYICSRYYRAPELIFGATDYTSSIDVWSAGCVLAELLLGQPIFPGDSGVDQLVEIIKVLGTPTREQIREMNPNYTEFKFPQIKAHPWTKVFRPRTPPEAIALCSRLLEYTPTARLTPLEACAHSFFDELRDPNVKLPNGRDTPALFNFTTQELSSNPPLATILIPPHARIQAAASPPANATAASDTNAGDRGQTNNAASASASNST

In the case of [Cl-].[Li+] [lithium chloride], the “attenuated cell cycle and reduced c-Myc level in osteoblasts” value (GSK3β) is given as “returned to normal”.
With Nc1ncc(-c2ccc(S(=O)(=O)N3CCNCC3)cc2)nc1C(=O)Nc1cccnc1 [3-amino-6-(4-piperazin-1-ylsulfonylphenyl)-N-pyridin-3-ylpyrazine-2-carboxamide] the “bone mineral density (BMD) in the trabeculae of the right femur metaphysis” value (from here on “bone mineral density (BMD)”) (Sprague Dawley rats [1]) was “BMD increases”.
With Nc1ncc(-c2ccc(S(N)(=O)=O)cc2)nc1C(=O)Nc1cccnc1 [3-amino-N-pyridin-3-yl-6-(4-sulfamoylphenyl)pyrazine-2-carboxamide] the “bone mineral density (BMD)” value (Sprague Dawley rats [1]) was “BMD increases”.
For CN1CCN(S(=O)(=O)c2ccc(-c3cnc(N)c(C(=O)Nc4cccnc4)n3)cc2)CC1 [3-amino-6-[4-(4-methylpiperazin-1-yl)sulfonylphenyl]-N-pyridin-3-ylpyrazine-2-carboxamide], the “bone formation (thickened trabeculae, thickened cortical bone, periosteal hyperostosis, increased number of osteoblasts) by light microscopy” value (Han Wistar rats; male and female Han Wistar rats, oral gavage 10, 30 or 60 μmol/kg/day for four weeks, all dose levels, vs vehicle) was “increased bone formation”, the “formation of osteoid in femur (diaphysis), FIG. 1b” value (Han Wistar rats; [4]) was “marked increase in formation of osteoid” and the “formation of osteoid in femur (diaphysis), FIG. 1b (figure legend)” value (Han Wistar rats; [4]) was “marked increase in formation of osteoid”. For the same molecule, the Osteocalcin plasma levels (osteocalcin) was “significantly increased”, the PTH plasma levels [2] was “significantly increased” and the calcitonin plasma levels (calcitonin) was “significantly increased”. For the same molecule, the “bone formation, histopathologically” value (Sprague Dawley rats [3]) was “increased bone formation” and the “bone mineral density (BMD)” value (Sprague Dawley rats [1]) was “BMD increases”.
